# Experimental data as given in patent US20210008047A1, “TARGETING MINIMAL RESIDUAL DISEASE IN CANCER WITH RXR ANTAGONISTS” (VIB VZW, priority 2018, published 2021).
# Columns and labels:
# MM052 cells = experiment: Colony assay and Cell Titer Glo assay in short-term melanoma culture MM052; assay type: cell-based, human
# Experimental: E) and Cell Titer Glo assay performed after 6 days after incubation of the short culture melanoma line MM052 with MEK inhibitor trametinib (TRA; 2 nM), RXRG agonist bexarotene (BEX; 1 uM), FAK inhibitor PF-562271 (1 uM) and RXRG antagonist HX531 (2 uM).
# Cells were grown to near confluency on 12well plates and treated with the indicated drug combinations for the indicated time period. Cells were washed once with PBS, stained with crystal violet (1% crystal violet w/v, 35% methanol v/v) for 15 min, washed with PBS and destained in tap water.
# 2500 cells were plated onto a 96well plate and treated with the indicated drug combinations for the indicated time period. Cell Titer Glo assay was performed according to the manufacturer's instruction (Promega) and luminescence was measured on a VictorX3 (Perkin Elmer).
# MEL006 cells = experiment: FACS of GFRA2-positive (NDTC) cells in drug-exposed MEL006 cultures
# Experimental: Cells from dissociated MEL006 tumors were grown in 5% CO2 at 37° C. in F10 (Gibco, Life Technologies) supplemented with 10% FBS (Gibco, Life Technologies) and 0.25% Glutamax (Gibco, Life Technologies).
# Cells were incubated with GFRA2 antibody (AF429 R&D 3 μg/mL) for 45 minutes at room temperature, followed by anti-goat secondary antibody conjugated with Alexa Fluor® 594 (ThermoFisherScientific) for 30 min at room temperature. Cells were resuspended in FACS sorting buffer (culture medium supplied with 1% EDTA 100 mM).
# To assess whether emergence of NDTCs upon MAPK inhibition is cancer cell intrinsic or depends on micro-environmental cues, we exposed 2D cultures of Me1006 to near IC25 concentrations of dabrafenib and trametinib for 10 days.
compound,measurement,setting,value
C=C(c1ccc(C(=O)O)cc1)c1cc2c(cc1C)C(C)(C)CCC2(C)C [bexarotene],Sensitivity of cells to a combination of trametinib/FAK-inhibitors,MM052 cells; MM52,increased
same,Long-term growth inhibition,"MM052 cells; MM52, bexarotene alone",did not induce measurable long-term growth inhibition
same,Sensitivity of cells to trametinib,"MM052 cells; MM52, bexarotene at concentrations as low as 10 nM",significantly decreased
same,Cells in which cell death occurred,"MM052 cells; bexarotene with trametinib/FAK-inhibitors, after 3 days of treatment (data not shown)",~100%
CN1c2ccc([N+](=O)[O-])cc2N=C(c2ccc(C(=O)O)cc2)c2cc3c(cc21)C(C)(C)CCC3(C)C [HX531],Sensitization of cells to trametinib,"MM052 cells; MM52, HX531 2 uM, trametinib 2 nM per FIG. 7 legend",sensitized
same,Drug-dependent induction of GFRA2-positive cells,MEL006 cells; in the presence of IC50 concentrations of the BRAF and MEK-inhibitors,completely inhibited
CN(c1ncccc1CNc1nc(Nc2ccc3c(c2)CC(=O)N3)ncc1C(F)(F)F)S(C)(=O)=O [PF-562271],Drug-dependent emergence of the GFRA2-high cell population,"MEL006 cells; FAK inhibitor together with DT, dose-dependent",diminished
same,Sensitivity of GFRA2high cells to FAK inhibitors,"MEL006 cells; MEL006 cells treated with DT and or FAK inhibitors, then FACS sorted for GFRA2",sensitive
